Experimental data from PMC11790914, “Chemogenomics for steroid hormone receptors (NR3)” (Communications Chemistry, 2025).
Several values for one entry are separate records, joined by “and”; a condition that tells them apart may be missing. Identical values can stand only once. Like-named read-outs stand apart in the source and are kept apart here.

How the values were obtained:
FGFR3 = target: T1, FGFR3 (Homo sapiens, UniProt P22607); assay: Liability panel screening by DSF: FGFR3; type: binding; conditions: read-out: Mean ΔTM FGFR3
T1 construct: made in house
Summary of the method: (§1)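 ∆Tm in K was taken from Boltzmann-fitted unfolding inflection points, run in duplicate with a temperature ramp of 3 °C per minute up to 85 °C. Each recombinant protein (2 µM) was in HEPES 10 mM pH 7.5 and NaCl 500 mM, with SYPRO Orange dye at 1:1000.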

HEK293T cells [1] = assay: Cytotoxicity: necrosis induction (red fluorescent dye for permeable plasma membranes); type: cell-based; conditions: 1 µM, 24 h, necrotic cell count normalized to 0.1% DMSO, single replicates;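 also: compounds applied in DMEM high glucose with 0.1% FCS and 0.1% DMSO, necrotic HEK293T cells counted by red staining of cells whose plasma membranes had become permeable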
CDK2 = target: T2, CDK2 (Homo sapiens, UniProt P24941); assay: Liability panel screening by DSF: CDK2; type: binding; conditions: read-out: Mean ΔTM CDK2
T2 construct: made in house
Summary of the method: as §1

CSNK1D = target: T3, CSNK1D (Homo sapiens, UniProt P48730); assay: Liability panel screening by DSF: CSNK1D; type: binding; conditions: read-out: Mean ΔTM CSNK1D
T3 construct: made in house
Summary of the method: as §1

AURKA = target: T4, AURKA (Homo sapiens, UniProt O14965); assay: Liability panel screening by DSF: AURKA; type: binding; conditions: read-out: Mean ΔTM AURKA
T4 construct: made in house
T4 sequence (O14965 1-403): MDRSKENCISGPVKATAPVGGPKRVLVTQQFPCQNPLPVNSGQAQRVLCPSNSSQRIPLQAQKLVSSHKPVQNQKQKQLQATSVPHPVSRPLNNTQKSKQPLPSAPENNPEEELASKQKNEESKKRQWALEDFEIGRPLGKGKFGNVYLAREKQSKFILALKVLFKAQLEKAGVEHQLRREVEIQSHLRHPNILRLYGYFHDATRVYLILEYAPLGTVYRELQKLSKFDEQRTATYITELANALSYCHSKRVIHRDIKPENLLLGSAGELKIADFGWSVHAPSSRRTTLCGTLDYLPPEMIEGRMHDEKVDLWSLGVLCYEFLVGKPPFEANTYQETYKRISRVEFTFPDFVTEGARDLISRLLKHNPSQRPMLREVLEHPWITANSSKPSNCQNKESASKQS
Summary of the method: as §1

HEK293T cells [2] = assay: Cytotoxicity: apoptosis induction (caspase-3/7 DEVD fluorogenic DNA dye); conditions: 1 µM; HEK293T, 24 h; apoptotic cell count normalized to 0.1% DMSO; single replicates
BRD4 = target: T5, BRD4 (Homo sapiens, UniProt O60885); assay: Liability panel screening by DSF: BRD4; type: binding; conditions: read-out: Mean ΔTM BRD4
T5 construct: This panel comprised ten highly ligandable kinases and bromodomains; made in house
Summary of the method: as §1

TRIM24 = target: T6, TRIM24 (Homo sapiens, UniProt O15164); assay: Liability panel screening by DSF: TRIM24; type: binding; conditions: read-out: Mean ΔTM TRIM24
T6 construct: This panel comprised ten highly ligandable kinases and bromodomains; made in house
T6 sequence (O15164 899-1004 limits assumed): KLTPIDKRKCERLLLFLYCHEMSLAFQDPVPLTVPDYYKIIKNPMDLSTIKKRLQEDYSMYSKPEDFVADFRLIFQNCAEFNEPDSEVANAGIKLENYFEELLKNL
Summary of the method: as §1

Gal4-VP16 = type: cell-based; conditions: 1 µM; vs. DMSO ctrl; single replicates n=1-3
HEK293T cells [3] = assay: Cytotoxicity: metabolic activity (WST-8 / CCK-8 assay); conditions: 1 µM; HEK293T, 24 h; WST-8; normalized to 0.1% DMSO; single replicates
BRPF1 = target: T7, BRPF1 (Homo sapiens, UniProt P55201); assay: Liability panel screening by DSF: BRPF1; type: binding; conditions: read-out: Mean ΔTM BRPF1
T7 construct: This panel comprised ten highly ligandable kinases and bromodomains; made in house
T7 sequence (P55201 628-732 limits assumed): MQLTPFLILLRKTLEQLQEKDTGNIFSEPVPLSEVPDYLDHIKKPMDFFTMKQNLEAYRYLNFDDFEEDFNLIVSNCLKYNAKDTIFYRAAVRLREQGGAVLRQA
Summary of the method: as §1

HEK293T cells [4] = assay: Cytotoxicity: growth-rate (change in confluence over 24 h); conditions: 1 µM, normalized to 0.1% DMSO control, single replicates (n=1...)
NR3C4 (AR) = conditions: cited from earlier work
ABL1 = target: T8, ABL1 (Homo sapiens, UniProt P00519); assay: Liability panel screening by DSF: ABL1; type: binding; conditions: read-out: Mean ΔTM ABL1
T8 construct: made in house
Summary of the method: as §1

[5] = system: ATF6 activity in Hela ATF6 reporter cells; assay: Endoplasmic reticulum stress assay (ATF6 Renilla luciferase reporter, tunicamycin); type: cell-based; conditions: Homo sapiens, HeLa, 1 µM, single replicates n=1 to n=5; read-out: ER stress [rel. ATF6 activity]
Summary of the method: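 HeLa ATF6 Renilla reporter cells were pretreated 4 h with compounds in 0.1% DMSO, then stimulated with tunicamycin (100 ng/mL) for 18 h. Renilla luminescence (DualGlo) was normalized to 0.1% DMSO control; five independent experiments.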

GSK3B = target: T9, GSK3B (Homo sapiens, UniProt P49841); assay: Liability panel screening by DSF: GSK3B; type: binding; conditions: read-out: Mean ΔTM GSK3B
T9 construct: made in house

MAPK1 = target: T10, MAPK1 (Homo sapiens, UniProt P28482); assay: Liability panel screening by DSF: MAPK1; type: binding; conditions: read-out: Mean ΔTM MAPK1
T10 construct: made in house
Summary of the method: as §1

[6] = system: NF-κB activity in HEK293 NF-κB reporter cells; assay: NF-kB activity assay (GFP reporter, ionomycin/PMA); type: cell-based; conditions: for Mean NFκB response: n=3; for NF-κB activity (inflammatory response to ionomycin/PMA): HEK293 NF-κB reporter cells, compounds at recommended concentrations, imaged over 24 h, n = 3
Summary of the method: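 HEK293 NF-κB GFP reporter cells given compound in 0.1% DMSO for 4 h, then stimulated with ionomycin 100 ng/mL plus PMA 10 ng/mL. Imaged every 90 min over 24 h; GFP-positive cell count normalized to confluence, three independent biological replicates.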

T1 sequence (P22607 23-806, species assumed): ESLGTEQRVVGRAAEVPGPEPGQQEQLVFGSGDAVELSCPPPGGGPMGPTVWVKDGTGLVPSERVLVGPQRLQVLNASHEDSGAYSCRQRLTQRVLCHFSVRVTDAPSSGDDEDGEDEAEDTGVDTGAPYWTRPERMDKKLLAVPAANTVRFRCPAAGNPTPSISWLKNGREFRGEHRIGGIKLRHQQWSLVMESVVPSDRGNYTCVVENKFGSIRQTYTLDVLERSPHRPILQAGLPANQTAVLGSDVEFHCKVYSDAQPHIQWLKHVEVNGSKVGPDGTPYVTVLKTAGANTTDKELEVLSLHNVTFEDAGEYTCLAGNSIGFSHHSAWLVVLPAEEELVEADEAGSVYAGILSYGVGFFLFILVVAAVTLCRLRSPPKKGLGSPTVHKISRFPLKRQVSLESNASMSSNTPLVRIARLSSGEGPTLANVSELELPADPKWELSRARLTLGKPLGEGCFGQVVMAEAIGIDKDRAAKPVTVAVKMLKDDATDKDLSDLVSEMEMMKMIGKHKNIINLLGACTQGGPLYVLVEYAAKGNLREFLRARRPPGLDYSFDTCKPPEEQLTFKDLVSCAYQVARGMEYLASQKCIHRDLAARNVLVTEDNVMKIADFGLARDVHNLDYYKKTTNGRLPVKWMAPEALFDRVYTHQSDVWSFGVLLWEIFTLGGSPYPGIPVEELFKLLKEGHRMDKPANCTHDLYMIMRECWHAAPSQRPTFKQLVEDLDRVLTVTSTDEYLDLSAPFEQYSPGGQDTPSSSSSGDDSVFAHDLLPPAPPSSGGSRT
T3 sequence (P48730 whole entry, species assumed): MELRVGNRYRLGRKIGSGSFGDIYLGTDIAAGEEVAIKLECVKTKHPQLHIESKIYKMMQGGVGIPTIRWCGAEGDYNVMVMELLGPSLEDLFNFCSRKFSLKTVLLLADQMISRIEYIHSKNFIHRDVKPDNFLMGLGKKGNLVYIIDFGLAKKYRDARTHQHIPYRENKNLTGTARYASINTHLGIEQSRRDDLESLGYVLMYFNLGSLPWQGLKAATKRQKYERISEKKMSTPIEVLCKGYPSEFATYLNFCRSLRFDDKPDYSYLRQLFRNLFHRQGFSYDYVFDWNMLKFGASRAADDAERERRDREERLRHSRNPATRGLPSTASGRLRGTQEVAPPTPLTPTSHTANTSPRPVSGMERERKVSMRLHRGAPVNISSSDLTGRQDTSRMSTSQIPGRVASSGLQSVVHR
T8 sequence (P00519 whole entry, species assumed): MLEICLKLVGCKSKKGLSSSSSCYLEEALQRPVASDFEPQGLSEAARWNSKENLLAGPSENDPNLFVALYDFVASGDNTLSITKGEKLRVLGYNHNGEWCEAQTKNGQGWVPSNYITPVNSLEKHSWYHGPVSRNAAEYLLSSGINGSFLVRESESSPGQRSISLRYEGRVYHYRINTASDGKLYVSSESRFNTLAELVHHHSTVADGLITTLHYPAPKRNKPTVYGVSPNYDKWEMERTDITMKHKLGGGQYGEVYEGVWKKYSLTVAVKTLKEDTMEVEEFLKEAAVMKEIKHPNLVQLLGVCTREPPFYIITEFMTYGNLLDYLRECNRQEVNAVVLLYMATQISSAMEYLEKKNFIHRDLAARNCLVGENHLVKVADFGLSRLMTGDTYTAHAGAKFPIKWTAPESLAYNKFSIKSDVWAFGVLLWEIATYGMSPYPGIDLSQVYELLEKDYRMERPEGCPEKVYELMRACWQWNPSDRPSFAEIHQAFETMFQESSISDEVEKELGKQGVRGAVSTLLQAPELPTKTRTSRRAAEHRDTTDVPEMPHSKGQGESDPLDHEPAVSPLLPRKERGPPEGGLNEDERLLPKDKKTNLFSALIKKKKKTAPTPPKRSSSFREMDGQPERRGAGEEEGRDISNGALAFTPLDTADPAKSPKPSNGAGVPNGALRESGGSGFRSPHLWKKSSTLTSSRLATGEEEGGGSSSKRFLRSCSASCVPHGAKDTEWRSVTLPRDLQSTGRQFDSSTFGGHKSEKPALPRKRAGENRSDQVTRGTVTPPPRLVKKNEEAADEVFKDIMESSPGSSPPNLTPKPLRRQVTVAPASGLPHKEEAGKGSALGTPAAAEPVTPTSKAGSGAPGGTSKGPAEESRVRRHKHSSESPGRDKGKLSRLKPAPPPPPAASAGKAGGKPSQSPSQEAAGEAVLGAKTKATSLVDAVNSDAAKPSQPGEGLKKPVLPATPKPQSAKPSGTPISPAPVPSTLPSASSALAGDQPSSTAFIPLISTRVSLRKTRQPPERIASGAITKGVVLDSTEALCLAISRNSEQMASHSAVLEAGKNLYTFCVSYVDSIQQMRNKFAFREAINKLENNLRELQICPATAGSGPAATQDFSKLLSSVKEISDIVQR
T9 sequence (P49841 whole entry, species assumed): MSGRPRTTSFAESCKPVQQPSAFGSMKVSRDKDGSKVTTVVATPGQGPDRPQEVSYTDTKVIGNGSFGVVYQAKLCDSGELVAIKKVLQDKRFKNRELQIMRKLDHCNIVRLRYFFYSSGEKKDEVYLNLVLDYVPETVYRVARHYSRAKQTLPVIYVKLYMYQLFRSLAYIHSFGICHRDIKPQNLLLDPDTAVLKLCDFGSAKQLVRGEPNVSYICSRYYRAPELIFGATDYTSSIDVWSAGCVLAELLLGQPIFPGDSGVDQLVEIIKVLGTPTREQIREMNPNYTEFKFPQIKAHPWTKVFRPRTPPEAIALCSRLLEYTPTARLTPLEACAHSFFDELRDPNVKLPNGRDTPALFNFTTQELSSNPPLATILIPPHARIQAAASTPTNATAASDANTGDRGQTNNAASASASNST
T10 sequence (P28482 whole entry, species assumed): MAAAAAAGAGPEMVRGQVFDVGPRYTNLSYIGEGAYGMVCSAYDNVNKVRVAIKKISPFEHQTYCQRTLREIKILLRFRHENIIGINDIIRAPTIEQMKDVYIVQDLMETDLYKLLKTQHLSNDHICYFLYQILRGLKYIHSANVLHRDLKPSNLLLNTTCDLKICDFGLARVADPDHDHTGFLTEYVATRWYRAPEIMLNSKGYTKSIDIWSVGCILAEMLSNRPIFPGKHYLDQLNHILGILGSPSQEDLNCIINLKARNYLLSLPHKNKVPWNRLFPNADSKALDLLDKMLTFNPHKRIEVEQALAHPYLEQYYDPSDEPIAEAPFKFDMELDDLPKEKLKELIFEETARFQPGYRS

Compound	Necrosis induction [NI] (HEK293T cells [1])	Apoptosis induction [AI] (HEK293T cells [2])	VP16 control [fold reporter gene activity] (Gal4-VP16)	Metabolic activity [MA] (HEK293T cells [3])	Growth rate [GR] (HEK293T cells [4])	Mean NFκB response ([6]; 1 µM, 1,5 h)	Mean NFκB response ([6]; 1 µM, 4,5 h)	Mean NFκB response ([6]; 1 µM, 7,5 h)	Mean NFκB response ([6]; 1 µM, 10,5 h)	Mean NFκB response ([6]; 1 µM, 13,5 h)	Mean NFκB response ([6]; 1 µM, 16,6 h)	Mean NFκB response ([6]; 1 µM, 19,5 h)	Mean NFκB response ([6]; 1 µM, 22,5 h)	Mean NFκB response ([6]; 1 µM, 3 h)	Mean NFκB response ([6]; 1 µM, 6 h)	Mean NFκB response ([6]; 1 µM, 9 h)	Mean NFκB response ([6]; 1 µM, 12 h)	Mean NFκB response ([6]; 1 µM, 15 h)	Mean NFκB response ([6]; 1 µM, 18 h)	Mean NFκB response ([6]; 1 µM, 21 h)	further results
CC(=O)Nc1ccc(OC[C@](C)(O)C(=O)Nc2ccc([N+](=O)[O-])c(C(F)(F)F)c2)cc1 [Andarine]	0.97 and 1.10 and 1.08 and 1.02	0.62 and 0.88 and 1.01 and 1.08 and 0.95 and 0.84	1.16 fold reporter gene activity and 1.15 fold reporter gene activity and 1.08 fold reporter gene activity	0.98 and 1.03 and 0.99 and 1.08 and 1.06 (2×) and 1.01 and 1.09	0.83 (2×) and 2.46 and 0.88 and 1.35 and 0.73 and 0.55 and 1.46 and 1.51 and 2.55	2599.83 GFP+-cells/confluence ∙ 1000	2912.69 GFP+-cells/confluence ∙ 1000	4207.99 GFP+-cells/confluence ∙ 1000	8408.10 GFP+-cells/confluence ∙ 1000	11806.03 GFP+-cells/confluence ∙ 1000	14271.49 GFP+-cells/confluence ∙ 1000	16631.36 GFP+-cells/confluence ∙ 1000	18398.57 GFP+-cells/confluence ∙ 1000	2627.11 GFP+-cells/confluence ∙ 1000	3252.11 GFP+-cells/confluence ∙ 1000	5899.76 GFP+-cells/confluence ∙ 1000	10166.51 GFP+-cells/confluence ∙ 1000	13144.54 GFP+-cells/confluence ∙ 1000	15566.10 GFP+-cells/confluence ∙ 1000	17508.52 GFP+-cells/confluence ∙ 1000	ΔTm at 20 µM (FGFR3): 2.59 °C; ΔTm at 20 µM (CDK2): 0.35 °C; ΔTm at 20 µM (CSNK1D): 0.23 °C; ΔTm at 20 µM (AURKA): -0.0326 °C; ΔTm at 20 µM (BRD4): -0.77 °C; ΔTm at 20 µM (TRIM24): 0.0216 °C; ΔTm at 20 µM (BRPF1): 0.97 °C; rel. activity from literature, NR3C4 (AR): % of DHT (NR3C4 (AR); of DHT (dihydrotestosterone), ref Supplementary Table 1): 93 ± 7%; EC50 (NR3C4 (AR); read-out: Potency [nM] EC50, NR3C4 (AR), (lit.), ref Supplementary Table 1): 4 ± 0.7 nM; ΔTm at 20 µM (ABL1): 0.78 °C; activity at 1 µM [5]: 93%; ΔTm at 20 µM (GSK3B): 0.71 °C; ΔTm at 20 µM (MAPK1): -0.26 °C; Mean NFκB response ([6]; 1 µM, 24 h): 19523.33 GFP+-cells/confluence ∙ 1000; NF-κB activity (inflammatory response to ionomycin/PMA) [6]: anti-inflammatory effect
CC(=O)O[C@]1(C(C)=O)CC[C@H]2[C@@H]3C=C(Cl)C4=CC(=O)[C@@H]5C[C@@H]5[C@]4(C)[C@H]3CC[C@@]21C [Cyproterone acetate]	0.92 and 0.81 and 0.87 and 0.98	0.80 and 0.89 and 0.91 and 1.07 and 1.28 and 0.67	1.23 fold reporter gene activity and 1.09 fold reporter gene activity and 0.95 fold reporter gene activity	1.02 (2×) and 0.92 and 0.98 and 1.01 and 0.94 and 0.99 and 1.05	1.11 and 1.76 and 1.28 and 1.77 and 1.08 and 0.80 (2×) and 0.94 and 0.96 and 1.44	3306.11 GFP+-cells/confluence ∙ 1000	3956.53 GFP+-cells/confluence ∙ 1000	9166.88 GFP+-cells/confluence ∙ 1000	19295.79 GFP+-cells/confluence ∙ 1000	27594.44 GFP+-cells/confluence ∙ 1000	34636.12 GFP+-cells/confluence ∙ 1000	38741.56 GFP+-cells/confluence ∙ 1000	41845.76 GFP+-cells/confluence ∙ 1000	3525.65 GFP+-cells/confluence ∙ 1000	5348.79 GFP+-cells/confluence ∙ 1000	14582.16 GFP+-cells/confluence ∙ 1000	23573.19 GFP+-cells/confluence ∙ 1000	31392.99 GFP+-cells/confluence ∙ 1000	36648.57 GFP+-cells/confluence ∙ 1000	40465.37 GFP+-cells/confluence ∙ 1000	ΔTm at 20 µM (FGFR3; DSF, 20 µM, n=2): 0.57 °C; ΔTm at 20 µM (CDK2; DSF, 20 µM, n=2): 0.15 °C; ΔTm at 20 µM (CSNK1D; DSF, 20 µM, n=2): 0.16 °C; ΔTm at 20 µM (AURKA; DSF, 20 µM, n=2): -1.49 °C; ΔTm at 20 µM (BRD4; DSF, 20 µM, n=2): -1.71 °C; ΔTm at 20 µM (TRIM24; DSF, 20 µM, n=2): -1.08 °C; ΔTm at 20 µM (BRPF1; DSF, 20 µM, n=2): -1.28 °C; rel. activity from literature, NR3C4 (AR): % rem. act. of DHT (NR3C4 (AR)): 52 ± 6%; IC50 (NR3C4 (AR); read-out: Potency [nM] IC50, NR3C4 (AR)): 26 ± 23 nM; ΔTm at 20 µM (ABL1; DSF, 20 µM, n=2): 0.36 °C; ΔTm at 20 µM (GSK3B; DSF, 20 µM, n=2): -0.72 °C; ΔTm at 20 µM (MAPK1; DSF, 20 µM, n=2): -0.22 °C; Mean NFκB response ([6]; 1 µM, 24 h): 42894.68 GFP+-cells/confluence ∙ 1000; NF-κB activity (inflammatory response to ionomycin/PMA) [6]: tended to enhance NF-κB activity
